Tested on: EpiSC-derived OPCs
Assay: Oligodendrocyte formation and myelin sheaths on electrospun microfibers
Type: cell-based, mouse
Conditions: 100 nM, versus untreated OPCs; microscopic images
Method: A 12-well plate containing Mimetex aligned scaffold (microfiber plate, AMSBIO, AMS.TECL-006-1X, Electrospun poly-L-lactide Scaffold, […] fibre diameter cell crown inserts) was prepared as previously described. Briefly, inserts were sterilized with 70% ethanol and washed with PBS before being coated with polyornithine and laminin. After laminin coating, 100,000 cells/mL of EpiSC-derived OPCs were plated in differentiation medium. After 24 h the media was replaced with fresh media containing small molecule treatments. […] Plates were fixed with 4% PFA, permeabilized with 0.1% Triton X-100, and blocked with 10% donkey serum (v/v) in PBS for 60 min. Plates were stained for MBP (Abcam, ab7349; 1:100) and DAPI staining (Sigma; 5 μg/ml). After staining, the inserts were moved into new 12-well plate and covered with 2 mL of PBS before imaging in Operetta high content Imaging and analysis system. Plates were imaged on the Operetta High Content Imaging and Analysis system (PerkinElmer) and a set of 8 fields captured from each well resulting in an average of 45,000 cells being scored per well. Analysis (PerkinElmer Harmony and Columbus software) identified intact nuclei stained by DAPI and calculated the MBP signal intensity per cell per well. Microfiber insert tracking images were taken using a Leica DMi8 with a 20× Dry/NA 0.40 objective. […]

With `CCN(C/C=C\c1ccc(C2CCCCC2)c(Cl)c1)C1CCCCC1` [Cis-N-cyclohexyl-N-ethyl-3-(3-chloro-4-cyclohexylphenyl)prop-2-enylamine] as the compound, how does the “amount of myelin sheaths formed on electrospun poly-L-lactide scaffold microfibers” value read?
Its value is “significant increase in the amount of myelin sheaths”.

From patent US10918610B2, “Compounds and methods of promoting myelination” (Case Western Reserve University, priority 2017, dated 2021)
